“And” between values parts separate entries of the source, which are not always exact repeats. Equal entries are not always repeated.
Test system: patients with treatment-resistant major depressive disorder (TRD)
Test: Phase 1/2 clinical trial of inhaled 5-MeO-DMT in treatment-resistant depression
Settings: for MADRS Concentration Difficulties % improvement / MADRS Concentration Difficulties improvement / MADRS Inability to Feel % improvement / MADRS Inability to Feel improvement / MADRS Inner Tension % improvement / MADRS Inner Tension improvement / MADRS Lassitude % improvement / MADRS Lassitude improvement / MADRS Pessimistic Thoughts % improvement / MADRS Pessimistic Thoughts improvement / MADRS Suicidal Thoughts % improvement / MADRS Suicidal Thoughts improvement / MADRS Suicidal Thoughts aggregated score / MADRS Inner Tension aggregated score / MADRS Lassitude aggregated score / MADRS Pessimistic Thoughts aggregated score / MADRS Concentration Difficulties aggregated score / MADRS Inability to Feel aggregated score / BPRS Anxiety % improvement / BPRS Anxiety improvement / BPRS Blunted Affect % improvement / BPRS Blunted Affect improvement / BPRS Emotional Withdrawal % improvement / BPRS Emotional Withdrawal improvement / BPRS Guilt Feelings % improvement / BPRS Guilt Feelings improvement / BPRS Tension % improvement / BPRS Tension improvement / BPRS Emotional Withdrawal aggregated score / BPRS Blunted Affect aggregated score / BPRS Tension aggregated score / BPRS Guilt Feelings aggregated score / BPRS Anxiety aggregated score / MADRS Reduced Sleep % improvement / MADRS Reduced Sleep improvement / MADRS Reduced Sleep aggregated score: IDR n=8; for MADRS Suicidal Thoughts aggregated score: baseline 11; for MADRS Inner Tension aggregated score: baseline 26; for MADRS Lassitude aggregated score: baseline 27; for MADRS Pessimistic Thoughts aggregated score: baseline 28; for MADRS Concentration Difficulties aggregated score: baseline 30; for MADRS Inability to Feel aggregated score: baseline 36; for BPRS Emotional Withdrawal aggregated score: baseline 13; for BPRS Blunted Affect aggregated score: baseline 15; for BPRS Tension aggregated score: baseline 16; for BPRS Guilt Feelings aggregated score: baseline 34; for BPRS Anxiety aggregated score: baseline 37; for MADRS Reduced Sleep aggregated score: baseline 25
Method: Patients were assigned to different groups. In the context of the present invention, the group who received a single, 12 mg dose and the group who underwent an intra-day individualized dosing regimen (IDR) that allowed for multiple, escalating doses (6 mg, 12 mg and 18 mg) within a single day, driven by the intensity of the patient-reported psychedelic experience are of interest.
The data gathered include the assessment of the treated patients against several scales including the Montgomery Åsberg Depression Rating Scale (MADRS) and the Brief Psychiatric Rating Scale (BPRS).
This trial was designed in two parts. Part A was an open-label, single-arm, single-dose Phase 1 trial with two dose levels (12 mg (n=4) and 18 mg (n=4)). […] The primary endpoint of Part B was to assess the effects on the severity of depression, as assessed by the proportion of patients in remission on day seven after dosing, defined as a MADRS total score of less than or equal to 10.

SMILES: COc1ccc2[nH]cc(CCN(C)C)c2c1 [5-MeO-DMT]
- MADRS Concentration Difficulties % improvement (2 h): 63% and 63.33%
- MADRS Concentration Difficulties improvement (2 h): 19 points
- MADRS Inability to Feel % improvement (2 h): 67% and 66.67%
- MADRS Inability to Feel improvement (2 h): 24 points
- MADRS Inner Tension % improvement (2 h): 58% and 57.69%
- MADRS Inner Tension improvement (2 h): 15 points
- MADRS Lassitude % improvement (2 h): 63% and 62.96%
- MADRS Lassitude improvement (2 h): 17 points
- MADRS Pessimistic Thoughts % improvement (2 h): 75%
- MADRS Pessimistic Thoughts improvement (2 h): 21 points
- MADRS Suicidal Thoughts % improvement (2 h): 73% and 72.72%
- MADRS Suicidal Thoughts improvement (2 h): 8 points
- MADRS Suicidal Thoughts aggregated score (2 h): 3
- MADRS Inner Tension aggregated score (2 h): 11
- MADRS Lassitude aggregated score (2 h): 10
- MADRS Pessimistic Thoughts aggregated score (2 h): 7
- MADRS Concentration Difficulties aggregated score (2 h): 11
- MADRS Inability to Feel aggregated score (2 h): 12
- BPRS Anxiety % improvement (3 h): 49% and 48.65%
- BPRS Anxiety improvement (3 h): 18 points
- BPRS Blunted Affect % improvement (3 h): 27% and 26.67%
- BPRS Blunted Affect improvement (3 h): 4 points
- BPRS Emotional Withdrawal % improvement (3 h): 38% and 38.46%
- BPRS Emotional Withdrawal improvement (3 h): 5 points
- BPRS Guilt Feelings % improvement (3 h): 59% and 58.82%
- BPRS Guilt Feelings improvement (3 h): 20 points
- BPRS Tension % improvement (3 h): 31% and 31.25%
- BPRS Tension improvement (3 h): 5 points
- BPRS Emotional Withdrawal aggregated score (3 h): 8
- BPRS Blunted Affect aggregated score (3 h): 11
- BPRS Tension aggregated score (3 h): 11
- BPRS Guilt Feelings aggregated score (3 h): 14
- BPRS Anxiety aggregated score (3 h): 19
- BPRS Anxiety % improvement (day 1): 57% and 56.76%
- BPRS Anxiety improvement (day 1): 21 points
- BPRS Blunted Affect % improvement (day 1): 47% and 46.67%
- BPRS Blunted Affect improvement (day 1): 7 points
- BPRS Emotional Withdrawal % improvement (day 1): 38% and 38.46%
- BPRS Emotional Withdrawal improvement (day 1): 5 points
- BPRS Guilt Feelings % improvement (day 1): 68% and 67.65%
- BPRS Guilt Feelings improvement (day 1): 23 points
- BPRS Tension % improvement (day 1): 31% and 31.25%
- BPRS Tension improvement (day 1): 5 points
- MADRS Concentration Difficulties % improvement (day 1): 97% and 96.67%
- MADRS Concentration Difficulties improvement (day 1): 29 points
- MADRS Inability to Feel % improvement (day 1): 94% and 94.44%
- MADRS Inability to Feel improvement (day 1): 34 points
- MADRS Inner Tension % improvement (day 1): 77% and 76.92%
- MADRS Inner Tension improvement (day 1): 20 points
- MADRS Lassitude % improvement (day 1): 81% and 81.48%
- MADRS Lassitude improvement (day 1): 22 points
- MADRS Pessimistic Thoughts % improvement (day 1): 86% and 85.71%
- MADRS Pessimistic Thoughts improvement (day 1): 24 points
- MADRS Reduced Sleep % improvement (day 1): 52%
- MADRS Reduced Sleep improvement (day 1): 13 points
- MADRS Suicidal Thoughts % improvement (day 1): 91% and 90.91%
- MADRS Suicidal Thoughts improvement (day 1): 10 points
- MADRS Suicidal Thoughts aggregated score (day 1): 1
- BPRS Emotional Withdrawal aggregated score (day 1): 8
- BPRS Blunted Affect aggregated score (day 1): 8
- BPRS Tension aggregated score (day 1): 11
- MADRS Reduced Sleep aggregated score (day 1): 12
- MADRS Inner Tension aggregated score (day 1): 6
- MADRS Lassitude aggregated score (day 1): 5
- MADRS Pessimistic Thoughts aggregated score (day 1): 4
- MADRS Concentration Difficulties aggregated score (day 1): 1
- BPRS Guilt Feelings aggregated score (day 1): 11
- MADRS Inability to Feel aggregated score (day 1): 2
- BPRS Anxiety aggregated score (day 1): 16
- BPRS Anxiety % improvement (day 7): 54% and 54.05%
- BPRS Anxiety improvement (day 7): 20 points
- BPRS Blunted Affect % improvement (day 7): 47% and 46.67%
- BPRS Blunted Affect improvement (day 7): 7 points
- BPRS Emotional Withdrawal % improvement (day 7): 38% and 38.46%
- BPRS Emotional Withdrawal improvement (day 7): 5 points
- BPRS Guilt Feelings % improvement (day 7): 71% and 70.59%
- BPRS Guilt Feelings improvement (day 7): 24 points
- BPRS Tension % improvement (day 7): 38% and 37.50%
- BPRS Tension improvement (day 7): 6 points
- MADRS Concentration Difficulties % improvement (day 7): 70%
- MADRS Concentration Difficulties improvement (day 7): 21 points
- MADRS Inability to Feel % improvement (day 7): 83% and 83.33%
- MADRS Inability to Feel improvement (day 7): 30 points
- MADRS Inner Tension % improvement (day 7): 54% and 53.85%
- MADRS Inner Tension improvement (day 7): 14 points
- MADRS Lassitude % improvement (day 7): 89% and 88.89%
- MADRS Lassitude improvement (day 7): 24 points
- MADRS Pessimistic Thoughts % improvement (day 7): 89% and 89.29%
- MADRS Pessimistic Thoughts improvement (day 7): 25 points
- MADRS Reduced Sleep % improvement (day 7): 64%
- MADRS Reduced Sleep improvement (day 7): 16 points
- MADRS Suicidal Thoughts % improvement (day 7): 73% and 72.73%
- MADRS Suicidal Thoughts improvement (day 7): 8 points
- MADRS Suicidal Thoughts aggregated score (day 7): 3
- BPRS Emotional Withdrawal aggregated score (day 7): 8
- BPRS Blunted Affect aggregated score (day 7): 8
- BPRS Tension aggregated score (day 7): 10
- MADRS Reduced Sleep aggregated score (day 7): 9
- MADRS Inner Tension aggregated score (day 7): 12
- MADRS Lassitude aggregated score (day 7): 3
- MADRS Pessimistic Thoughts aggregated score (day 7): 3
- MADRS Concentration Difficulties aggregated score (day 7): 9
- BPRS Guilt Feelings aggregated score (day 7): 10
- MADRS Inability to Feel aggregated score (day 7): 6
- BPRS Anxiety aggregated score (day 7): 17
- Patients maintaining remission (IDR, Day 7): 7/8
- Patients achieving remission (IDR, day 1): 8/8
- Patients achieving remission (IDR, within 2h after dosing): 5/8
- SAEs (Part A): No SAEs were reported
- Changes in safety laboratory analyses, vital signs, psychiatric safety assessments, cognitive function (Part A and Part B): No clinically significant changes
- Patients with at least one ADR (Part A, both groups (12 mg and 18 mg), all mild, resolved spontaneously): 3 of 4
- SAEs (Part B): No SAEs were reported
- Patients with at least one ADR (Part B IDR n=8, all resolved spontaneously): 87.5%
- Hypomania induction (TRD patients): no evidence of hypomania induction

Reference: patent US20240108601A1, “TREATMENT OF MENTAL DISORDERS” (GH Research Ireland Limited, priority 2022, published 2024)
